Literature values in patent US12029733B2, “Treatment of sepsis and related inflammatory conditions by local neuromodulation of the autonomic nervous system” (Tulavi Therapeutics, Inc., priority 2016, dated 2024).

Columns and labels:
FFA1 = FFA1 (Homo sapiens, UniProt O14842); conditions: marked *: FFA1 ERK activation (Smith et al. 2009) / aequorin reporter Ca2+ signaling (Kotarsky et al. 2003)
GPR120 = target: T1, GPR120 (Homo sapiens, UniProt Q5NUL3); conditions: fluorescent indicator measurement of Ca2+ mobilization
T1 sequence (Q5NUL3 1-361): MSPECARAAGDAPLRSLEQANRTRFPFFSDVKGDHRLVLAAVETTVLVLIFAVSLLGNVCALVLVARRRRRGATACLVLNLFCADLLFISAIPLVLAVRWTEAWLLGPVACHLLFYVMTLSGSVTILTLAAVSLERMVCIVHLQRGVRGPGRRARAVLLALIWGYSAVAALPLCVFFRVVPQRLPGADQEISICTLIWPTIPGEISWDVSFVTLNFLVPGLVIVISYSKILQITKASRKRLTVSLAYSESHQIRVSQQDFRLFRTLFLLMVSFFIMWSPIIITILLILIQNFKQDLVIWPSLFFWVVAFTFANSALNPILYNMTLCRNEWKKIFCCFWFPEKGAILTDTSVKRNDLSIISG

KCC2 = target: T2, KCC2 (Homo sapiens, UniProt Q9H2X9)
T2 sequence (Q9H2X9 1-1139): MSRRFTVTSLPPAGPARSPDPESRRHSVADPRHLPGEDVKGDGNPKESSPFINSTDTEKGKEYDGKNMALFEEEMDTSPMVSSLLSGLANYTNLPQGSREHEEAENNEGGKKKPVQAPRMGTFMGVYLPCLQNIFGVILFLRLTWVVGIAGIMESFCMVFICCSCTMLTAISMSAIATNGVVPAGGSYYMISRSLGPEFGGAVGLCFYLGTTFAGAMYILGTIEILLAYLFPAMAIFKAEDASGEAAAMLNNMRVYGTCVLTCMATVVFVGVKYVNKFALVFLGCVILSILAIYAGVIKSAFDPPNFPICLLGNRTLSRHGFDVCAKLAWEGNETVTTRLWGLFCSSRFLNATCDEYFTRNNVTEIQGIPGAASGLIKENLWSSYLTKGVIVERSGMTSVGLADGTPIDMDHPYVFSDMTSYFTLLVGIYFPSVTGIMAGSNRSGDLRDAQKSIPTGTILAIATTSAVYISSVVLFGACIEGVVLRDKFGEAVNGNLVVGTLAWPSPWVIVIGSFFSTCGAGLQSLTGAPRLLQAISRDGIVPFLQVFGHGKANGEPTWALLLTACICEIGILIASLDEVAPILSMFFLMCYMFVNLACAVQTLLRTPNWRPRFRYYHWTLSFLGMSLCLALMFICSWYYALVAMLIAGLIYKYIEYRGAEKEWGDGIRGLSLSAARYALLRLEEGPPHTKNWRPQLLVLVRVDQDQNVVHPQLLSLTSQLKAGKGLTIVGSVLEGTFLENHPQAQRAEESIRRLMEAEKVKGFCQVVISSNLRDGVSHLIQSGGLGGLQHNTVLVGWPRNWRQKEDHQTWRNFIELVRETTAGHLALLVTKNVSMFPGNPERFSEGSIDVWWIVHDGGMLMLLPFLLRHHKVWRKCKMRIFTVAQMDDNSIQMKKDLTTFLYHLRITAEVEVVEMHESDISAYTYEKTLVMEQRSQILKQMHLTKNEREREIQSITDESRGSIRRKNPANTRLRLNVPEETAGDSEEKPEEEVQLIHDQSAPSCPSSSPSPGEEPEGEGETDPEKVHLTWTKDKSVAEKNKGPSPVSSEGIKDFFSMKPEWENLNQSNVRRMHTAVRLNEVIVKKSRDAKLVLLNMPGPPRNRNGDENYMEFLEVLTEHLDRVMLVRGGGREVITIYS

[1] = in vivo

Sequence of FFA1 (O14842 whole entry): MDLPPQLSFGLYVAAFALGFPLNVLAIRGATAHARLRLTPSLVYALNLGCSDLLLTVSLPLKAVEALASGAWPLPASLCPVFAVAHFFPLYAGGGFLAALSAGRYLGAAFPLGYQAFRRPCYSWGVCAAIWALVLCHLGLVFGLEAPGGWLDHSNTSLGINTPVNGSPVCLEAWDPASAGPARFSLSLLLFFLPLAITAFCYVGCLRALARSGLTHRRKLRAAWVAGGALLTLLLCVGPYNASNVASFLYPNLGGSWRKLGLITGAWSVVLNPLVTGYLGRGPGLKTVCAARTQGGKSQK

Row | FFA1 pEC50 (FFA1) | GPR120 pEC50 (GPR120) | Compound | other results
1 | 5.5-5.9* | <5.0 | CC(C)(CCCCCCCCCCC(C)(C)CC(=O)O)CC(=O)O [MEDICA16] | 
2 |  | 4.3 | CCCCCCCCCCCCCCCC(=O)O [Palmitic Acid (C16:0), Palmitic Acid] | 
3 | 5.0-5.6* |  | CN(CCOc1ccc(CC2SC(=O)NC2=O)cc1)c1ccccn1 (stereo not shown) [Rosiglitazone] | 
4 |  |  | Cc1csc(NC(=O)CSc2ccc(-c3ccccc3)nn2)n1 [VU0240551] | selectivity KCC2 over NKCC1 (KCC2): selective for KCC2 over NKCC1
5 |  |  | N=C(N)NC(=O)c1cnn(-c2cccc3ncccc23)c1C1CC1 [Zoniporide] | neurotoxic effects [1]: causes peripheral sensory axonopathy

Row | Compound | FFA1 pEC50 (FFA1) | GPR120 pEC50 (GPR120) | other results
6 | CCCCCCCC/C=C\CCCCCCCC(=O)O [Oleic acid (C18:l), Oleic acid] |  | 4.5 | 
